Where a name gives a salt, the structure may show the parent alone.
melting point	SMILES
147.9 to 152.9 °C	Cc1cc(N2CCNCC2)c2c(c1)N(S(=O)(=O)c1ccc(Cl)cc1)CCO2 (as salt: hydrochloride)
202 to 205 °C	O=S(=O)(c1ccccc1)N1CCOc2c(N3CCNCC3)cc(Cl)cc21 (as salt: hydrochloride)
158.5 to 163.5 °C	CS(=O)(=O)Nc1cccc(S(=O)(=O)N2CCOc3c(N4CCNCC4)cccc32)c1 [Compound 20, N-[3-(8-Piperazin-1-yl-2,3-dihydro-benzo[1,4]oxazine-4-sulfonyl)-phenyl]-methanesulfonamide]
